Data taken from patent US11053204B2, “Pyrimidinyloxy benzene derivatives as herbicides” (FMC Corporation, priority 2015, dated 2021).

Legend:
Type in all cases: in vivo
[1] = test system: Italian ryegrass (Lolium multiflorum); assay: Test A postemergence, visual injury rating
Outline: (§1)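 Compounds in non-phytotoxic solvent with surfactant applied as soil spray preemergence, or postemergence to plants 2-10 cm at one- to two-leaf stage, in loam/sand. After approximately 10 days in greenhouse, injury rated visually versus untreated controls, 0 (no effect) to 100 (complete control).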

[2] = test system: corn (Zea mays); assay: Test A postemergence, visual injury rating
Outline: as §1

[3] = test system: giant foxtail (Setaria faberii); assay: Test A postemergence, visual injury rating
Outline: as §1

[4] = test system: kochia (Kochia scoparia); assay: Test A postemergence, visual injury rating
Outline: as §1

[5] = test system: pigweed (Amaranthus retroflexus); assay: Test A postemergence, visual injury rating
Outline: as §1

[6] = test system: ragweed (common ragweed, Ambrosia elatior); assay: Test A postemergence, visual injury rating
Outline: as §1

[7] = test system: wheat (Triticum aestivum); assay: Test A postemergence, visual injury rating
Outline: as §1

[8] = test system: barnyardgrass (Echinochloa crus-galli); assay: Test B flooded paddy test, plant response rating; details: 250 g ai/ha; Flood; scale of 0 to 100 where 0 is no effect and 100 is complete control; 13 to 15 days
Outline: (§2)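 Under a constant 3 cm flood, test compounds went directly into the paddy water. Following 13 to 15 days of greenhouse growth, treated species and controls were compared by eye.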

[9] = test system: ducksalad (Heteranthera limosa); assay: Test B flooded paddy test, plant response rating; details: 250 g ai/ha; Flood; scale of 0 to 100 where 0 is no effect and 100 is complete control; 13 to 15 days
Outline: as §2

[10] = test system: rice (Oryza sativa); assay: Test B flooded paddy test, plant response rating; details: 250 g ai/ha; Flood; scale of 0 to 100 where 0 is no effect and 100 is complete control; 13 to 15 days
Outline: as §2

[11] = test system: sedge, umbrella (small-flower umbrella sedge, Cyperus difformis); assay: Test B flooded paddy test, plant response rating; details: 250 g ai/ha; Flood; scale of 0 to 100 where 0 is no effect and 100 is complete control; 13 to 15 days
Outline: as §2

[12] = test system: barnyardgrass (Echinochloa crus-galli); assay: Test C postemergence, plant response rating; details: for Plant response rating, Barnyardgrass: scale 0 to 100; for Barnyardgrass plant response rating: scale 0 to 100 (0 no effect, 100 complete control)
Outline: (§3)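 Pre-emergence: seeds sown in loam soil–sand blend or silt loam and sprayed with test chemicals in a non-phytotoxic solvent mixture with surfactant. Post-emergence: plants 2 to 18 cm (1- to 4-leaf stage) in peat-based potting medium, same formulation. Greenhouse 13 to 15 d; visual rating 0 (no effect) to 100 (complete control) versus controls.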

[13] = test system: kochia (Kochia scoparia); assay: Test C postemergence, plant response rating; details: for Kochia plant response rating: scale 0 to 100 (0 no effect, 100 complete control)
Outline: as §3

[14] = test system: morningglory (Ipomoea coccinea); assay: Test C postemergence, plant response rating; details: for Morningglory plant response rating: scale 0 to 100 (0 no effect, 100 complete control)
Outline: as §3

[15] = test system: oilseed rape (Brassica napus); assay: Test C postemergence, plant response rating; details: for Oilseed Rape plant response rating: scale 0 to 100 (0 no effect, 100 complete control)
Outline: as §3

[16] = test system: ragweed (common ragweed, Ambrosia elatior); assay: Test C postemergence, plant response rating; details: for Ragweed plant response rating: scale 0 to 100 (0 no effect, 100 complete control)
Outline: as §3

[17] = test system: velvetleaf (Abutilon theophrasti); assay: Test C postemergence, plant response rating; details: for Velvetleaf plant response rating: scale 0 to 100 (0 no effect, 100 complete control)
Outline: as §3

[18] = test system: waterhemp (common waterhemp, Amaranthus rudis); assay: Test C postemergence, plant response rating; details: for Waterhemp plant response rating: scale 0 to 100 (0 no effect, 100 complete control)
Outline: as §3

[19] = 31 g ai/ha, 0 to 100 scale (0 no effect, 100 complete control)
[20] = 125 g ai/ha, 0 to 100 scale, 0 is no effect, 100 is complete control, approximately 10 days
[21] = 125 g ai/ha, 0 is no effect, 100 is complete control
[22] = 500 g ai/ha, 0 is no effect, 100 is complete control

With `FC(F)(F)CCCCc1c(Cl)cccc1Oc1ncc(Cl)cn1` [Compound 137] the “Ryegrass, Italian plant response rating” value [1, 19] was 10, the “Ryegrass, Italian plant response rating” value [1, 20] was 30 and the “Corn plant response rating” value [2, 19] was 10. For the same compound, the “Corn plant response rating” value [2, 20] was 10, the “Foxtail, Giant plant response rating” value [3, 19] was 10 and the “Foxtail, Giant plant response rating” value [3, 20] was 60. For the same compound, the “Kochia plant response rating” value [4, 19] was 90, the “Kochia plant response rating” value [4, 20] was 100 and the “Pigweed plant response rating” value [5, 19] was 80. The “Pigweed plant response rating” value [5, 20] was 100, the “Ragweed plant response rating” value [6, 19] was 10 and the “Ragweed plant response rating” value [6, 20] was 40. For the same compound, the “Wheat plant response rating” value [7, 19] was 0, the “Wheat plant response rating” value [7, 20] was 10 and the “Plant response rating, Barnyardgrass” value [8] was 75. For the same compound, the “Plant response rating, Ducksalad” value [9] was 95, the “Plant response rating, Rice” value [10] was 50 and the “Plant response rating, Sedge, Umbrella” value [11] was 95. For the same compound, the “Plant response rating, Barnyardgrass” value ([12]; 16 g ai/ha) was 10, the “Plant response rating, Barnyardgrass” value ([12]; 31 g ai/ha) was 10 and the “Barnyardgrass plant response rating” value ([12]; 62 g ai/ha) was 20. For the same compound, the “Barnyardgrass plant response rating” value ([12]; 125 g ai/ha) was 40, the “Plant response rating, Kochia” value ([13]; 16 g ai/ha, scale of 0 to 100) was 85 and the “Plant response rating, Kochia” value ([13]; 31 g ai/ha, scale 0 to 100) was 90. For the same compound, the “Kochia plant response rating” value ([13]; 62 g ai/ha) was 98, the “Kochia plant response rating” value ([13]; 125 g ai/ha) was 98 and the “Plant response rating, Morningglory” value ([14]; 16 g ai/ha, scale of 0 to 100) was 10. The “Plant response rating, Morningglory” value ([14]; 31 g ai/ha, scale 0 to 100) was 15, the “Morningglory plant response rating” value ([14]; 62 g ai/ha) was 20 and the “Morningglory plant response rating” value ([14]; 125 g ai/ha) was 20. The “Plant response rating, Oilseed Rape” value ([15]; 16 g ai/ha, scale of 0 to 100) was 90, the “Plant response rating, Oilseed Rape” value ([15]; 31 g ai/ha, scale 0 to 100) was 95 and the “Oilseed Rape plant response rating” value ([15]; 62 g ai/ha) was 90. For the same compound, the “Oilseed Rape plant response rating” value ([15]; 125 g ai/ha) was 100, the “Plant response rating, Ragweed” value ([16]; 16 g ai/ha, scale of 0 to 100) was 20 and the “Plant response rating, Ragweed” value ([16]; 31 g ai/ha, scale 0 to 100) was 35. The “Ragweed plant response rating” value ([16]; 62 g ai/ha) was 30, the “Ragweed plant response rating” value ([16]; 125 g ai/ha) was 30 and the “Plant response rating, Velvetleaf” value ([17]; 16 g ai/ha, scale of 0 to 100) was 10. For the same compound, the “Plant response rating, Velvetleaf” value ([17]; 31 g ai/ha, scale 0 to 100) was 15, the “Velvetleaf plant response rating” value ([17]; 125 g ai/ha) was 70 and the “Plant response rating, Waterhemp” value ([18]; 16 g ai/ha, scale of 0 to 100) was 40. The “Plant response rating, Waterhemp” value ([18]; 31 g ai/ha, scale 0 to 100) was 60 and the “Waterhemp plant response rating” value ([18]; 125 g ai/ha) was 75.

With `N#CCCOC(=O)c1c(Br)cccc1Oc1ncc(Cl)cn1` [Compound 7] the “Ryegrass, Italian plant response rating (0 to 100 scale)” value [1, 21] was 20, the “Ryegrass, Italian plant response rating (0 to 100 scale)” value [1, 22] was 70 and the “Corn plant response rating (0 to 100 scale)” value [2, 21] was 10. The “Corn plant response rating (0 to 100 scale)” value [2, 22] was 70, the “Foxtail, Giant plant response rating (0 to 100 scale)” value [3, 21] was 50 and the “Foxtail, Giant plant response rating (0 to 100 scale)” value [3, 22] was 100. The “Kochia plant response rating (0 to 100 scale)” value [4, 21] was 100, the “Kochia plant response rating (0 to 100 scale)” value [4, 22] was 100 and the “Pigweed plant response rating (0 to 100 scale)” value [5, 21] was 100. For the same compound, the “Pigweed plant response rating (0 to 100 scale)” value [5, 22] was 100, the “Ragweed plant response rating (0 to 100 scale)” value [6, 21] was 40 and the “Ragweed plant response rating (0 to 100 scale)” value [6, 22] was 90. The “Wheat plant response rating (0 to 100 scale)” value [7, 21] was 0, the “Wheat plant response rating (0 to 100 scale)” value [7, 22] was 20 and the “Plant response rating, Barnyardgrass” value [8] was 0. The “Plant response rating, Ducksalad” value [9] was 0, the “Plant response rating, Rice” value [10] was 0 and the “Plant response rating, Sedge, Umbrella” value [11] was 0. The “Plant response rating, Barnyardgrass” value ([12]; 16 g ai/ha) was 5, the “Plant response rating, Barnyardgrass” value ([12]; 31 g ai/ha) was 5 and the “Barnyardgrass plant response rating” value ([12]; 62 g ai/ha) was 15. For the same compound, the “Barnyardgrass plant response rating” value ([12]; 125 g ai/ha) was 10, the “Plant response rating, Kochia” value ([13]; 16 g ai/ha, scale 0 to 100) was 0 and the “Plant response rating, Kochia” value ([13]; 31 g ai/ha, scale 0 to 100) was 30. The “Kochia plant response rating” value ([13]; 62 g ai/ha) was 25, the “Kochia plant response rating” value ([13]; 125 g ai/ha) was 20 and the “Plant response rating, Morningglory” value ([14]; 16 g ai/ha, scale 0 to 100) was 5. For the same compound, the “Plant response rating, Morningglory” value ([14]; 31 g ai/ha, scale 0 to 100) was 25, the “Morningglory plant response rating” value ([14]; 62 g ai/ha) was 40 and the “Morningglory plant response rating” value ([14]; 125 g ai/ha) was 55. For the same compound, the “Plant response rating, Oilseed Rape” value ([15]; 16 g ai/ha, scale 0 to 100) was 0, the “Plant response rating, Oilseed Rape” value ([15]; 31 g ai/ha, scale 0 to 100) was 0 and the “Oilseed Rape plant response rating” value ([15]; 62 g ai/ha) was 0. The “Oilseed Rape plant response rating” value ([15]; 125 g ai/ha) was 5, the “Plant response rating, Ragweed” value ([16]; 16 g ai/ha, scale 0 to 100) was 10 and the “Plant response rating, Ragweed” value ([16]; 31 g ai/ha, scale 0 to 100) was 20. The “Ragweed plant response rating” value ([16]; 62 g ai/ha) was 20, the “Ragweed plant response rating” value ([16]; 125 g ai/ha) was 25 and the “Plant response rating, Velvetleaf” value ([17]; 16 g ai/ha, scale 0 to 100) was 5. The “Plant response rating, Velvetleaf” value ([17]; 31 g ai/ha, scale 0 to 100) was 20, the “Velvetleaf plant response rating” value ([17]; 62 g ai/ha) was 35 and the “Velvetleaf plant response rating” value ([17]; 125 g ai/ha) was 40. The “Plant response rating, Waterhemp” value ([18]; 16 g ai/ha, scale 0 to 100) was 35, the “Plant response rating, Waterhemp” value ([18]; 31 g ai/ha, scale 0 to 100) was 70 and the “Waterhemp plant response rating” value ([18]; 62 g ai/ha) was 60. The “Waterhemp plant response rating” value ([18]; 125 g ai/ha) was 65.
